Results as given in ChEMBL document CHEMBL1155283, “Synthesis and anabolic/androgenic evaluation of novel 9alpha-fluorosteroids” (Eur J Med Chem, 2009).
Active and inactive are the calls of the source.

Key:
Format in all cases: functional, organism-based
[1] = test system: Rattus norvegicus; assay: Androgenic activity in Wistar rat assessed as weight of prostate at 20 mg/kg of corporal weight, sc after 7 days by animal castration method; set-up: dose 20 mg/kg; conditions: Prostate gland
[2] = test system: Rattus norvegicus; assay: Androgenic activity in Wistar rat assessed as weight of seminal vesicle at 20 mg/kg of corporal weight, sc after 7 days by animal castration method; set-up: dose 20 mg/kg
[3] = test system: Rattus norvegicus; assay: Androgenic activity in Wistar rat assessed as weight of prostate at 10 mg/kg of corporal weight, sc after 7 days by animal castration method; set-up: dose 10 mg/kg; conditions: Prostate gland
[4] = test system: Rattus norvegicus; assay: Androgenic activity in Wistar rat assessed as weight of seminal vesicle at 10 mg/kg of corporal weight, sc after 7 days by animal castration method; set-up: dose 10 mg/kg
[5] = test system: Rattus norvegicus; assay: Androgenic activity in Wistar rat assessed as weight of seminal vesicle at 40 mg/kg of corporal weight, sc after 7 days by animal castration method; set-up: dose 40 mg/kg
[6] = test system: Rattus norvegicus; assay: Anabolic activity in Wistar rat assessed as weight of levator ani muscle at 40 mg/kg of corporal weight, sc after 7 days by animal castration method; set-up: dose 40 mg/kg
[7] = test system: Rattus norvegicus; assay: Anabolic activity in Wistar rat assessed as weight of levator ani muscle at 10 mg/kg of corporal weight, sc after 7 days by animal castration method; set-up: dose 10 mg/kg
[8] = test system: Rattus norvegicus; assay: Anabolic activity in Wistar rat assessed as weight of levator ani muscle at 20 mg/kg of corporal weight, sc after 7 days by animal castration method; set-up: dose 20 mg/kg
[9] = test system: Rattus norvegicus; assay: Androgenic activity in Wistar rat assessed as weight of prostate at 40 mg/kg of corporal weight, sc after 7 days by animal castration method; set-up: dose 40 mg/kg; conditions: Prostate gland

Measured: Activity

CC(C)C(=O)O[C@H]1CC[C@H]2[C@@H]3CC[C@H]4C[C@@H](O)CC[C@]4(C)[C@@]3(F)[C@@H](O)C[C@]12C
active: [1] | [3]
inactive: [2] | [4] | [5]

CC(=O)O[C@H]1CC[C@@]2(C)[C@@H](CC[C@H]3[C@@H]4CCC(=O)[C@@]4(C)C[C@H](O)[C@@]32F)C1
inactive: [6] | [7] | [2] | [4] | [8] | [5]
active: [1] | [9]

CC(=O)O[C@H]1CC[C@@]2(C)[C@@H](CC[C@H]3[C@@H]4CC[C@H](O)[C@@]4(C)C[C@H](O)[C@@]32F)C1
active: [6] | [8]
inactive: [4]

CC(=O)O[C@H]1CC[C@@]2(C)[C@@H](CC[C@H]3[C@@H]4CC[C@H](OC(C)=O)[C@@]4(C)C[C@H](O)[C@@]32F)C1
active: [1] | [9]

CCC(=O)O[C@H]1CC[C@H]2[C@@H]3CC[C@H]4C[C@@H](OC(C)=O)CC[C@]4(C)[C@@]3(F)[C@@H](O)C[C@]12C
active: [7] | [1] | [3] | [8]

CCCCCCC(=O)O[C@H]1CC[C@H]2[C@@H]3CC[C@H]4C[C@@H](O)CC[C@]4(C)[C@@]3(F)[C@@H](O)C[C@]12C
inactive: [1] | [2] | [3] | [4] | [9] | [5]

C[C@]12CC[C@H](O)C[C@@H]1CC[C@H]1[C@@H]3CCC(=O)[C@@]3(C)C[C@H](O)[C@@]12F
inactive: [1] | [2] | [3] | [4] | [9] | [5]
